Laboratory results reported in the kinase profiling compilation of Christmann-Franck et al. (2016).
Values joined by “and” are separate entries in the source; they are usually repeats but may differ in a detail not shown here. Identical values can stand only once.

Legend:
Test in all cases: KINOMEscan competition binding
Conditions in all cases: compound 1.0 µM
CSNK2A1 (human) = CSNK2A1 (human) (UniProt P68400)
SRPK3 (human) = SRPK3 (human) (UniProt Q9UPE1)
NUAK1 (human) = NUAK1 (human) (UniProt O60285)
CLK1 (human) = CLK1 (human) (UniProt P49759)
CDC42BPB (human) = CDC42BPB (human) (UniProt Q9Y5S2)
CDC42BPB (human), sequence (Q9Y5S2 whole entry, looked up): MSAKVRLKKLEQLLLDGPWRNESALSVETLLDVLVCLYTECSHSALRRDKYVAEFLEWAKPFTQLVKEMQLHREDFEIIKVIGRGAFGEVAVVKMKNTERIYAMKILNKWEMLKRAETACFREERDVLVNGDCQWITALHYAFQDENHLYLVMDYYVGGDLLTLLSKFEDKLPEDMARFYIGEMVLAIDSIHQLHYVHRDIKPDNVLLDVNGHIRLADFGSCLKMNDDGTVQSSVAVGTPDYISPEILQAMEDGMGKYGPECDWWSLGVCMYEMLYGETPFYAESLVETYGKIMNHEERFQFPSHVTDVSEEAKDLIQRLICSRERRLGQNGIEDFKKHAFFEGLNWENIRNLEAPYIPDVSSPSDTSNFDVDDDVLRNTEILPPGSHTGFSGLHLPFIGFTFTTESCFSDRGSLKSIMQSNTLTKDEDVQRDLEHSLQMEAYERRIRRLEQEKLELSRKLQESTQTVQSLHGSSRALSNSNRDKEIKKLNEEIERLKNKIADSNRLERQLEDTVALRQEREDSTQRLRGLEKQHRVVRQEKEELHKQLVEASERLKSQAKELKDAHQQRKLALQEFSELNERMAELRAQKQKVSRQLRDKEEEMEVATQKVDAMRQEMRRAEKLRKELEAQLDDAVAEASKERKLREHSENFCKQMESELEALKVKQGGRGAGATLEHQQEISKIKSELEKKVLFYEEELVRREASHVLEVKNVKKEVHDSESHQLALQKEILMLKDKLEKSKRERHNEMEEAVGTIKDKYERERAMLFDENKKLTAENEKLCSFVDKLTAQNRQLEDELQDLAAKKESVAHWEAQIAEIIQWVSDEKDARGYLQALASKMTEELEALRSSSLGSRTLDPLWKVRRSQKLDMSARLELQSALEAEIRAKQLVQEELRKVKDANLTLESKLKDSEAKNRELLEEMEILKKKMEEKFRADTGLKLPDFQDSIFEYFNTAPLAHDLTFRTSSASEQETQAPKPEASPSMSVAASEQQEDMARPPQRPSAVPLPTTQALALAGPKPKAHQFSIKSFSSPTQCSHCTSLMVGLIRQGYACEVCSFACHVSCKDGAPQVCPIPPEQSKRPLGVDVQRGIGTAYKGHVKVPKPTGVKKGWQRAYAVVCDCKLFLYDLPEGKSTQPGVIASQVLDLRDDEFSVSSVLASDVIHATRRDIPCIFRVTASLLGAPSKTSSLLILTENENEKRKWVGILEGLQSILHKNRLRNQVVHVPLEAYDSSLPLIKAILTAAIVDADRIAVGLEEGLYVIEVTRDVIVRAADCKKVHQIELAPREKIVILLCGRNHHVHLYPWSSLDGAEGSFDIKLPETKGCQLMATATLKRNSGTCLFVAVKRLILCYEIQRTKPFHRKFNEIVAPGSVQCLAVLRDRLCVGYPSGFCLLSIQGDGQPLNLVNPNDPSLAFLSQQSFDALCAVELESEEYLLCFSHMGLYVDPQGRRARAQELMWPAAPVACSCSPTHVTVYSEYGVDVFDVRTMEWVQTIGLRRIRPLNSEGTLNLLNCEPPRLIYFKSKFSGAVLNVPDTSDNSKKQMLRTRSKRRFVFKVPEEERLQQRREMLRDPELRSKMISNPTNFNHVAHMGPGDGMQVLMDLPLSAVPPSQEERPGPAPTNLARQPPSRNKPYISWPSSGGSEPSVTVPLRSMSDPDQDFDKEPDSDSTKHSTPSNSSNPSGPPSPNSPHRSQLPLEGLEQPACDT

AAK1 (human) = AAK1 (human) (UniProt Q2M2I8)
CSK (human) = CSK (human) (UniProt P41240)
LTK (human) = LTK (human) (UniProt P29376)
RPS6KA5 KD1 (human) = RPS6KA5 KD1 (human) (UniProt O75582)
TXK (human) = TXK (human) (UniProt P42681)
PAK6 (human) = PAK6 (human) (UniProt Q9NQU5)
CDC2L2 (human) = CDC2L2 (human) (UniProt Q9UQ88)
RPS6KA2 KD1 (human) = RPS6KA2 KD1 (human) (UniProt Q15349)
MUSK (human) = MUSK (human) (UniProt O15146)
TAOK1 (human) = TAOK1 (human) (UniProt Q7L7X3)
TAOK1 (human), sequence (Q7L7X3 whole entry, looked up): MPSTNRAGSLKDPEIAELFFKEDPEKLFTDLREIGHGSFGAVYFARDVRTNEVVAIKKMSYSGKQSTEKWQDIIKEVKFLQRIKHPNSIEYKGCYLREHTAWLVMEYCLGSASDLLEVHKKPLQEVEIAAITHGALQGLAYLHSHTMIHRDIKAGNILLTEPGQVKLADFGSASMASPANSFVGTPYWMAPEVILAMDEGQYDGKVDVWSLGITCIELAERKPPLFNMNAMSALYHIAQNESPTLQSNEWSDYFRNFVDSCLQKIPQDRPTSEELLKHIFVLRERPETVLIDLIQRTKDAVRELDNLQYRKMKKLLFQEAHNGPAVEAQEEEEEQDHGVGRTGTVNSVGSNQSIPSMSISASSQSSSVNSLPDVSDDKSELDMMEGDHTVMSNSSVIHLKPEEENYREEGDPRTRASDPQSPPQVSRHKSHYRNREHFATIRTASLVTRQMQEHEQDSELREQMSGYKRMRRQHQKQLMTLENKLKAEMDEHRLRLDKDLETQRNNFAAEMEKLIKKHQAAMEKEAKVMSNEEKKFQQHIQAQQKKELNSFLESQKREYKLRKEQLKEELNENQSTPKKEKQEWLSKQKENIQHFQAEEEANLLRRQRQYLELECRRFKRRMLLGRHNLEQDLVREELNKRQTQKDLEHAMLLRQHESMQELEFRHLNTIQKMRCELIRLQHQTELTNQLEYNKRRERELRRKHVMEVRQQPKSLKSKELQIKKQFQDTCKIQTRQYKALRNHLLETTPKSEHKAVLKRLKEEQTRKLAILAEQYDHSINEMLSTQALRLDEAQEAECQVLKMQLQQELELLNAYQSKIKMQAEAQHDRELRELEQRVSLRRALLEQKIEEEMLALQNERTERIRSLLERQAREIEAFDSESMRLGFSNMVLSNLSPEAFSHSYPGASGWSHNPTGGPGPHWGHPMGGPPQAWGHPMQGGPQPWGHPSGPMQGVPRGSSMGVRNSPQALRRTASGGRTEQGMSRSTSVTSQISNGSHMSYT

FGFR3 (human) = FGFR3 (human) (UniProt P22607)
MAP3K10 (human) = MAP3K10 (human) (UniProt Q02779)
GRK1 (human) = GRK1 (human) (UniProt Q15835)
[1] = system: KIT (human), P10721 [V559D/T670I]
PDGFRA (human) = PDGFRA (human) (UniProt P16234)
PRKX (human) = PRKX (human) (UniProt P51817)
PLK2 (human) = PLK2 (human) (UniProt Q9NYY3)
PRKG2 (human) = PRKG2 (human) (UniProt Q13237)
[2] = molecular target: JAK3 JH1 catalytic (human) (UniProt P52333)
TNK1 (human) = TNK1 (human) (UniProt Q13470)
[3] = system: ABL1 (human), P00519 [H396P]
KDR (human) = KDR (human) (UniProt P35968)
CAMKK2 (human) = CAMKK2 (human) (UniProt Q96RR4)
BMPR1B (human) = BMPR1B (human) (UniProt O00238)
BMPR1B (human), sequence (O00238 whole entry, looked up): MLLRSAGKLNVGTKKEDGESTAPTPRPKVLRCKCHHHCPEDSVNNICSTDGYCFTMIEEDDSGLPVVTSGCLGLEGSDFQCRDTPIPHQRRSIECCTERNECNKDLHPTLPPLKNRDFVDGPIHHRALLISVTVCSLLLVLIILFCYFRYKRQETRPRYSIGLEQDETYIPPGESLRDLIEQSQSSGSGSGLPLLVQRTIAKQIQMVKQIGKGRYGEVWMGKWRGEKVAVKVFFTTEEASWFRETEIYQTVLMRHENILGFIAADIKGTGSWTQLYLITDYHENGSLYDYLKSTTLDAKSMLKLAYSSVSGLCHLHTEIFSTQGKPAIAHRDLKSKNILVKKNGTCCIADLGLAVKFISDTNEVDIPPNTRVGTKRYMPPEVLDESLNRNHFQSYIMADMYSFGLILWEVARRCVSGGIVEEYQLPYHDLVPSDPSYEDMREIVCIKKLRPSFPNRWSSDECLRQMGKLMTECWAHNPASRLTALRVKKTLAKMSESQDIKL

MYLK2 (human) = MYLK2 (human) (UniProt Q9H1R3)
MYLK2 (human), sequence (Q9H1R3 whole entry, looked up): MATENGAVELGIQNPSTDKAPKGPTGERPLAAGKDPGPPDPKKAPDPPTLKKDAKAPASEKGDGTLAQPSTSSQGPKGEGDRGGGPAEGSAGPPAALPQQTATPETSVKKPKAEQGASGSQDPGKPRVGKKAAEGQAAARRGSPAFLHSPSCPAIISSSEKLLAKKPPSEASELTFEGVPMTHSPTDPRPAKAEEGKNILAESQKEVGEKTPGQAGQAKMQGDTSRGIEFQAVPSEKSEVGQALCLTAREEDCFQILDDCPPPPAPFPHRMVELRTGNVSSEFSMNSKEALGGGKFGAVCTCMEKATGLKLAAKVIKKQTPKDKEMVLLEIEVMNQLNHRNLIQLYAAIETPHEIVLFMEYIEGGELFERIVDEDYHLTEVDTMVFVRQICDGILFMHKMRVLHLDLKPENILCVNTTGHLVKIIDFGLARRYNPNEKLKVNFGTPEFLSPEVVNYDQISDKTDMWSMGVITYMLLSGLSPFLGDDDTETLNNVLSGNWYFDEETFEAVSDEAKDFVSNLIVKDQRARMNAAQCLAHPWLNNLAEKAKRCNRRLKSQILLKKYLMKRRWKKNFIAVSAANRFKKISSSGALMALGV

IKBKB (human) = IKBKB (human) (UniProt O14920)
AURKB (human) = AURKB (human) (UniProt Q96GD4)
[4] = system: ABL1 (human), P00519 [F317L]
EGFR (human) = EGFR (human) (UniProt P00533)
PAK1 (human) = PAK1 (human) (UniProt Q13153)
PAK1 (human), sequence (Q13153 whole entry, looked up): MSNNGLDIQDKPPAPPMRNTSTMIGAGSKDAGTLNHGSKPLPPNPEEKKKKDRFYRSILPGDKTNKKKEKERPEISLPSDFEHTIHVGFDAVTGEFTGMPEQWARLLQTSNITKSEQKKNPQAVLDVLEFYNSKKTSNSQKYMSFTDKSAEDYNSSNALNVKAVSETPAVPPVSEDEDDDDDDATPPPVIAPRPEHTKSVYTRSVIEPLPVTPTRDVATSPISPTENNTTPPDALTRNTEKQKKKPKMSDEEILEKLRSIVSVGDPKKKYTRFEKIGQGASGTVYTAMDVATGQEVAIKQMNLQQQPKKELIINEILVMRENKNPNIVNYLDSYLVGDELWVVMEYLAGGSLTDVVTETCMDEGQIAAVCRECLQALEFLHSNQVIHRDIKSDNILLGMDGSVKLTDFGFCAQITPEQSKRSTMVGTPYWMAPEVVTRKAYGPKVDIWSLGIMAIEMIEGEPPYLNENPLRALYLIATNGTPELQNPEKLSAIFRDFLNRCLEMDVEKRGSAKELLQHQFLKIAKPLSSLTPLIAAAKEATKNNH

PAK2 (human) = PAK2 (human) (UniProt Q13177)
PAK2 (human), sequence (Q13177 whole entry, looked up): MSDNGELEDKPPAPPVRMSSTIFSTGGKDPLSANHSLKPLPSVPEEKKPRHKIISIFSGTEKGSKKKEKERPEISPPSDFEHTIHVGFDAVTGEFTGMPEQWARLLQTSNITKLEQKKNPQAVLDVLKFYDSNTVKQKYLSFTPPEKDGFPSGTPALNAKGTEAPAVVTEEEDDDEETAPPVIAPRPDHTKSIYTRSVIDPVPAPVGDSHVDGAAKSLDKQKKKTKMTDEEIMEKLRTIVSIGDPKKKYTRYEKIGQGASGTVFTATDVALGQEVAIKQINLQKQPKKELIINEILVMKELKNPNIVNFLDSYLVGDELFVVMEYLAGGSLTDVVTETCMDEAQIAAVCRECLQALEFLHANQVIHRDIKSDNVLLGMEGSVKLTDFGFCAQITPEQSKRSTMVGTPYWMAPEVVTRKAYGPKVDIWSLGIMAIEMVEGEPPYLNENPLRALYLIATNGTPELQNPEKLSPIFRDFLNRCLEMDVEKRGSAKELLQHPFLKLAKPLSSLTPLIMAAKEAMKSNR

ERBB2 (human) = ERBB2 (human) (UniProt P04626)
SRMS (human) = SRMS (human) (UniProt Q9H3Y6)
HIPK2 (human) = HIPK2 (human) (UniProt Q9H2X6)
YES1 (human) = YES1 (human) (UniProt P07947)

Nc1cc(C(F)(F)F)c(-c2cc(N3CCOCC3)nc(N3CCOCC3)n2)cn1
inhibition of binding (CSNK2A1 (human)): 0% | inhibition of binding (SRPK3 (human)): 0% | inhibition of binding (NUAK1 (human)): 42% | inhibition of binding (CLK1 (human)): 58% | inhibition of binding (CDC42BPB (human)): 0% | inhibition of binding (AAK1 (human)): 0% | inhibition of binding (CSK (human)): 8% | inhibition of binding (LTK (human)): 0% | inhibition of binding (RPS6KA5 KD1 (human)): 0% | inhibition of binding (TXK (human)): 0% | inhibition of binding (PAK6 (human)): 16% | inhibition of binding (CDC2L2 (human)): 19% | inhibition of binding (RPS6KA2 KD1 (human)): 2% | inhibition of binding (MUSK (human)): 0% | inhibition of binding (TAOK1 (human)): 0% and 2% | inhibition of binding (FGFR3 (human)): 7% | inhibition of binding (MAP3K10 (human)): 0% | inhibition of binding (GRK1 (human)): 0% | inhibition of binding [1]: 0% | inhibition of binding (PDGFRA (human)): 11% | inhibition of binding (PRKX (human)): 0% | inhibition of binding (PLK2 (human)): 0% | inhibition of binding (PRKG2 (human)): 0% | inhibition of binding [2]: 100% | inhibition of binding (TNK1 (human)): 10% | inhibition of binding [3]: 0% | inhibition of binding (KDR (human)): 0% | inhibition of binding (CAMKK2 (human)): 0% | inhibition of binding (BMPR1B (human)): 0% | inhibition of binding (MYLK2 (human)): 5% | inhibition of binding (IKBKB (human)): 0% | inhibition of binding (AURKB (human)): 0% | inhibition of binding [4]: 0% | inhibition of binding (EGFR (human)): 10% | inhibition of binding (PAK1 (human)): 4% | inhibition of binding (PAK2 (human)): 17% | inhibition of binding (ERBB2 (human)): 24% | inhibition of binding (SRMS (human)): 0% | inhibition of binding (HIPK2 (human)): 0% | inhibition of binding (YES1 (human)): 0%
